The values below are quoted from earlier work in US20110008867A1, “COMPOSITIONS AND METHODS FOR THE PRODUCTION OF A COMPOUND” (GREENLIGHT BIOSCIENCES, priority 2008, published 2011).

One data set deals with E. coli. As to conditions: in E. coli; concentration that inhibits cell growth.
A further data set concerns yeast. As to conditions: in yeast; concentration that inhibits cell growth.

On to `CCCCO` [1-butanol], for which the “Inhibition Concentration” value with E. coli is 1.3% in E. coli.
`CCCCCCCCCCO` [1-decanol]: the “Inhibition Concentration” value in the data set with E. coli was 0.000236% in E. Coli.
For `CCCCCO` [1-pentanol], the “Inhibition Concentration” value with E. coli is 0.25% in E. Coli.
In the case of `CCO` [Ethanol], the results for the “Inhibition Concentration” value in the data set on E. coli and in the data set with yeast were 5% and 15%, respectively.
